Test results from US20190328691A1, “ANTIBIOTIC THERAPY” (Boulos & Cooper Pharmaceuticals Pty Ltd, priority 2015, published 2019).

Experiments:
[1] = test system: Staphylococcus aureus (ATCC 29213); experiment: Checkerboard combination / MIC assay with S. aureus ATCC 29213; format: cell-based
Method in brief: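 CLSI broth microdilution checkerboard in CAMHB, final inoculum 5×10^5 CFU/mL, 2% DMSO. Ramizol or Chlopam (11-point 2-fold) crossed with commercial antibiotics (7-point), each starting at 4× MIC; synergy assessed by FIC index (sum of MIC-in-combination/MIC-alone ratios; ≤0.5 synergy, >4 antagonism).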

[2] = test system: MRSA strains; conditions: cited from earlier work
[3] = test system: Staphylococcus aureus (BAA-1717); experiment: Checkerboard combination / MIC assay with S. aureus BAA-1717 (MRSA); format: cell-based; conditions: for Effect of individual antibiotic combinations: S. aureus BAA-1717
Method in brief: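 CLSI broth microdilution checkerboard in CAMHB (5×10^5 CFU/mL, 2% DMSO final). Ramizol or Chlopam was tested in 11-point two-fold series against 7-point antibiotic titrations, starting at 4× MIC.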

Question: For `CN[C@H](CC(C)C)C(=O)N[C@H]1C(=O)N[C@@H](CC(N)=O)C(=O)N[C@H]2C(=O)N[C@H]3C(=O)N[C@H](C(=O)N[C@H](C(=O)O)c4cc(O)cc(O)c4-c4cc3ccc4O)[C@H](O)c3ccc(c(Cl)c3)Oc3cc2cc(c3O[C@@H]2O[C@H](CO)[C@@H](O)[C@H](O)[C@H]2O[C@H]2C[C@](C)(N)[C@H](O)[C@H](C)O2)Oc2ccc(cc2Cl)[C@H]1O` [Vancomycin], which “FICI of combination with Chlopam” value ([1]; Chlopam 0.003906 μg/mL + labelled antibiotic at MIC of same cell, S. aureus ATCC 29213) is on record?
Answer: 1.0

Question: What about the “MIC of antibiotic in combination with Chlopam” value (from here on “MIC … with Chlopam”) ([1]; Chlopam 0.003906 μg/mL, S. aureus ATCC 29213) of the same compound?
Answer: 1 µg/mL

Question: And the “FICI of combination with Chlopam” value ([1]; Chlopam 0.0078125 μg/mL + labelled antibiotic at MIC of same cell, S. aureus ATCC 29213)?
Answer: 1.0

Question: What about the “MIC … with Chlopam” value ([1]; Chlopam 0.0078125 μg/mL, S. aureus ATCC 29213) of the same compound?
Answer: 1 µg/mL

Question: What about the “FICI of combination with Chlopam” value ([1]; Chlopam 0.015625 μg/mL + labelled antibiotic at MIC of same cell, S. aureus ATCC 29213) of the same compound?
Answer: 1.0

Question: What about the “MIC … with Chlopam” value ([1]; Chlopam 0.015625 μg/mL, S. aureus ATCC 29213) of the same compound?
Answer: 1 µg/mL

Question: And the “FICI of combination with Chlopam” value ([1]; Chlopam 0.125 μg/mL + labelled antibiotic at MIC of same line, S. aureus ATCC 29213)?
Answer: 0.8

Question: And the “MIC … with Chlopam” value ([1]; Chlopam 0.125 μg/mL, S. aureus ATCC 29213)?
Answer: 0.5 µg/mL

Question: What about the “FICI of combination with Chlopam” value ([1]; Chlopam 0.25 μg/mL + labelled antibiotic at MIC of same cell, S. aureus ATCC 29213) of the same compound?
Answer: 1.0

Question: And the “MIC … with Chlopam” value ([1]; Chlopam 0.25 μg/mL, S. aureus ATCC 29213)?
Answer: 0.5 µg/mL

Question: What about the “Effect of individual antibiotic combinations” value ([1]; Chlopam and Vancomycin: 0.003901 and 1, 0.0078125 and 1, 0.015625 and 1, 0.125 and 0.5, 0.25 and 0.5 μg/mL, S. aureus ATCC 29213) of the same compound?
Answer: additive effect

Question: And the “FICI of combination with Ramizol” value ([1]; Ramizol 0.015625 μg/mL + labelled antibiotic at MIC of same cell, S. aureus ATCC 29213)?
Answer: 1.0

Question: What about the “MIC of antibiotic in combination with Ramizol” value (“MIC … with Ramizol” for short) ([1]; Ramizol 0.015625 μg/mL, S. aureus ATCC 29213) of the same compound?
Answer: 1 µg/mL

Question: What about the “FICI of combination with Ramizol” value ([1]; Ramizol 0.03125 μg/mL + labelled antibiotic at MIC of same cell, S. aureus ATCC 29213) of the same compound?
Answer: 1.0

Question: And the “MIC … with Ramizol” value ([1]; Ramizol 0.03125 μg/mL, S. aureus ATCC 29213)?
Answer: 1 µg/mL

Question: What about the “FICI of combination with Ramizol” value ([1]; Ramizol 0.0625 μg/mL + labelled antibiotic at MIC of same cell, S. aureus ATCC 29213) of the same compound?
Answer: 1.0

Question: What about the “MIC … with Ramizol” value ([1]; Ramizol 0.0625 μg/mL, S. aureus ATCC 29213) of the same compound?
Answer: 1 µg/mL

Question: What about the “FICI of combination with Ramizol” value ([1]; Ramizol 0.125 μg/mL + labelled antibiotic at MIC of same cell, S. aureus ATCC 29213) of the same compound?
Answer: 1.0

Question: What about the “MIC … with Ramizol” value ([1]; Ramizol 0.125 μg/mL, S. aureus ATCC 29213) of the same compound?
Answer: 1 µg/mL

Question: And the “Effect of individual antibiotic combinations” value ([1]; Ramizol and Vancomycin: 0.015625 and 1, 0.03125 and 1, 0.0625 and 1, 0.125 and 1 μg/mL, S. aureus ATCC 29213)?
Answer: additive effect

Question: And the MIC ([1]; Staphylococcus aureus, ATCC29213, read-out: MIC of antibiotic alone)?
Answer: 1 µg/mL

Question: And the “MIC of antibiotic alone” value ([1]; Table 7, checkerboard series with Ramizol, S. aureus ATCC 29213)?
Answer: 1 µg/mL

Question: And the “Effect of the combinations with Chlopam (by mean FICI)” value ([1]; labelled antibiotic + Chlopam, S. aureus ATCC 29213)?
Answer: additive effect

Question: What about the “mean FICI of combination with Chlopam” value ([1]; labelled antibiotic + Chlopam, mean of all pairwise combinations, S. aureus ATCC 29213) of the same compound?
Answer: 1.0

Question: What about the “mean FICI of combination with Ramizol” value ([1]; labelled antibiotic + Ramizol, mean of all pairwise combinations, S. aureus ATCC 29213) of the same compound?
Answer: 1.2

Question: And the MIC ([2]; MRSA strains fully resistant to vancomycin)?
Answer: ≥ 32 µg/mL

Question: What about the “minimum inhibitory concentration [MIC]” value ([2]; MRSA strains with decreased susceptibility to vancomycin) of the same compound?
Answer: 4 to 8 µg/mL

Question: And the “FICI of combination with Chlopam” value ([3]; Chlopam 0.001953 μg/mL + labelled antibiotic at MIC of same cell, S. aureus ATCC BAA-1717)?
Answer: 1.0

Question: And the “MIC … with Chlopam” value ([3]; Chlopam 0.001953 μg/mL, S. aureus ATCC BAA-1717)?
Answer: 1 µg/mL

Question: And the “FICI of combination with Chlopam” value ([3]; Chlopam 0.003906 μg/mL + labelled antibiotic at MIC of same cell, S. aureus ATCC BAA-1717)?
Answer: 1.0

Question: What about the “MIC … with Chlopam” value ([3]; Chlopam 0.003906 μg/mL, S. aureus ATCC BAA-1717) of the same compound?
Answer: 1 µg/mL

Question: What about the “FICI of combination with Chlopam” value ([3]; Chlopam 0.0078125 μg/mL + labelled antibiotic at MIC of same cell, S. aureus ATCC BAA-1717) of the same compound?
Answer: 1.0

Question: And the “MIC … with Chlopam” value ([3]; Chlopam 0.0078125 μg/mL, S. aureus ATCC BAA-1717)?
Answer: 1 µg/mL

Question: And the “FICI of combination with Chlopam” value ([3]; Chlopam 0.015625 μg/mL + labelled antibiotic at MIC of same cell, S. aureus ATCC BAA-1717)?
Answer: 1.0

Question: And the “MIC … with Chlopam” value ([3]; Chlopam 0.015625 μg/mL, S. aureus ATCC BAA-1717)?
Answer: 1 µg/mL

Question: And the “FICI of combination with Chlopam” value ([3]; Chlopam 0.5 μg/mL + labelled antibiotic at MIC of same line, S. aureus ATCC BAA-1717)?
Answer: 1.0

Question: And the “MIC … with Chlopam” value ([3]; Chlopam 0.5 μg/mL, S. aureus ATCC BAA-1717)?
Answer: 0.031 µg/mL

Question: And the “Effect of individual antibiotic combinations” value ([3]; Chlopam and Vancomycin: 0.001953 and 1, 0.003901 and 1, 0.0078125 and 1, 0.015625 and 1 μg/mL)?
Answer: additive effect

Question: What about the “FICI of combination with Ramizol” value ([3]; Ramizol 0.015625 μg/mL + labelled antibiotic at MIC of same cell, S. aureus ATCC BAA-1717) of the same compound?
Answer: 1.0

Question: What about the “MIC … with Ramizol” value ([3]; Ramizol 0.015625 μg/mL, S. aureus ATCC BAA-1717) of the same compound?
Answer: 1 µg/mL

Question: And the “FICI of combination with Ramizol” value ([3]; Ramizol 0.03125 μg/mL + labelled antibiotic at MIC of same cell, S. aureus ATCC BAA-1717)?
Answer: 1.0

Question: What about the “MIC … with Ramizol” value ([3]; Ramizol 0.03125 μg/mL, S. aureus ATCC BAA-1717) of the same compound?
Answer: 1 µg/mL

Question: What about the “FICI of combination with Ramizol” value ([3]; Ramizol 0.0625 μg/mL + labelled antibiotic at MIC of same cell, S. aureus ATCC BAA-1717) of the same compound?
Answer: 1.0

Question: What about the “MIC … with Ramizol” value ([3]; Ramizol 0.0625 μg/mL, S. aureus ATCC BAA-1717) of the same compound?
Answer: 1 µg/mL

Question: And the “FICI of combination with Ramizol” value ([3]; Ramizol 0.125 μg/mL + labelled antibiotic at MIC of same line, S. aureus ATCC BAA-1717)?
Answer: 1.0

Question: What about the “MIC … with Ramizol” value ([3]; Ramizol 0.125 μg/mL, S. aureus ATCC BAA-1717) of the same compound?
Answer: 1 µg/mL

Question: And the “FICI of combination with Ramizol” value ([3]; Ramizol 4 μg/mL + labelled antibiotic at MIC of same cell, S. aureus ATCC BAA-1717)?
Answer: 1.0

Question: What about the “MIC … with Ramizol” value ([3]; Ramizol 4 μg/mL, S. aureus ATCC BAA-1717) of the same compound?
Answer: 0.031 µg/mL

Question: And the “Effect of individual antibiotic combinations” value ([3]; Ramizol and Vancomycin: 0.015625 and 1, 0.03125 and 1, 0.0625 and 1, 0.125 and 1, 4 and 0.031 μg/mL)?
Answer: additive effect

Question: What about the MIC ([3]; Staphylococcus aureus, ATCC BAA-1717 / BAA-1717, read-out: MIC of antibiotic alone) of the same compound?
Answer: 1 µg/mL

Question: And the “MIC of antibiotic alone” value ([3]; Table 7, checkerboard series with Ramizol, S. aureus ATCC BAA-1717)?
Answer: 1 µg/mL

Question: And the “mean FICI of combination with Chlopam” value ([3]; labelled antibiotic + Chlopam, mean of all pairwise combinations, S. aureus ATCC BAA-1717)?
Answer: 1.2

Question: And the “mean FICI of combination with Ramizol” value ([3]; labelled antibiotic + Ramizol, mean of all pairwise combinations, S. aureus ATCC BAA-1717)?
Answer: 1.2
